Seven molecules from patent publication US10544112B2, “Identification of ebsulfur analogues with broad-spectrum antifungal activity” (priority 2017, dated 2020) can be followed below.

Data set [1] relates to C. albicans ATCC 64124 (strain B). The data set is described as follows: microbe, parasite or virus in culture. It counts as cell-based, Candida albicans. Conditions: for MIC-0: strain B, compounds 1-4n and AmB, 48 h, RPMI 1640. Summed up:
(§1)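 Broth microdilution per CLSI M27-A3 with minor modifications, in RPMI 1640 buffered to pH 7.0 with 0.165 M MOPS. Yeast inocula were grown in potato dextrose broth, diluted into RPMI to 5×10^3 CFU/mL, and exposed to two-fold dilutions from 12.5-0.02 μg/mL for 48 h at 35° C.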

For data set [2], the system named is C. albicans ATCC 90819(R) (strain D). The data set is described as follows: microbe, parasite or virus in culture. It counts as cell-based, Candida albicans. Particulars: for MIC-0: strain D, compounds 1-4n and AmB, 48 h, RPMI 1640. Summed up:
as §1

Data set [3] deals with C. albicans ATCC MYA-1003(R) (strain G). The data set is described as follows: microbe, parasite or virus in culture. Particulars: for MIC-0: strain G, compounds 1-4n and AmB, 48 h, RPMI 1640. It counts as cell-based, Candida albicans. Summed up: as §1
For data set [4], the system named is C. albicans ATCC MYA-1237(R) (strain F). Kind of data set: microbe, parasite or virus in culture. Conditions: for MIC-0: strain F, compounds 1-4n and AmB, 48 h, RPMI 1640. It is filed as cell-based, Candida albicans. Summed up:
as §1

The subject of data set [5] is C. albicans ATCC MYA-2310(S) (strain E). The data set is described as follows: Antifungal MIC determination (CLSI M27-A3, 96-well). It is filed as cell-based, Candida albicans. Particulars: for MIC-0: strain E, compounds 1-4n and AmB, 48 h, RPMI 1640. Summed up: as §1
Data set [6] relates to C. albicans ATCC MYA-2876(S) (strain C). Described as above. It counts as cell-based, Candida albicans. Particulars: for MIC-0: strain C, compounds 1-4n and AmB, 48 h, RPMI 1640. In a few lines: as §1
Data set [7] has as its system Candida albicans ATCC 10231 (strain A). The data set is described as above. Conditions: for MIC-0: strain A, compounds 1-4n and AmB, 48 h, RPMI 1640. It is filed as cell-based. In a few lines: as §1
For data set [8], the system named is Candida glabrata ATCC 2001 (strain H). Described as above. It is filed as cell-based. Conditions: for MIC-0: strain H, compounds 1-4n and AmB, 48 h, RPMI 1640. Summed up: as §1
The subject of data set [9] is Candida krusei ATCC 6258 (strain I). The data set is described as above. Conditions: for MIC-0: strain I, compounds 1-4n and AmB, 48 h, RPMI 1640. It counts as cell-based. In a few lines: as §1
The test system of data set [10] is Candida parapsilosis ATCC 22019 (strain J). Described as above. It counts as cell-based. Particulars: for MIC-0: strain J, compounds 1-4n and AmB, 48 h, RPMI 1640. In a few lines: as §1
Data set [11] has as its system Aspergillus flavus ATCC MYA-3631 (strain K). Kind of data set: Antifungal MIC determination, filamentous fungi spores. It is filed as cell-based. Conditions: all compounds. Summed up:
(§2)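 Broth microdilution per CLSI M27-A3 (modified) in RPMI 1640 buffered to pH 7.0 with 0.165 M MOPS; yeast inocula grown in PDB, Aspergillus spores from PDA cultures at 25° C. Final drug 12.5-0.02 μg/mL, inoculum 5×10^3 CFU/mL; incubation 48 h at 35° C.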

The test system of data set [12] is Aspergillus nidulans ATCC 38163 (strain L). Described as above. It is filed as cell-based. Conditions: for MIC-0: strain L, spores. In a few lines:
as §2

Data set [13] relates to Aspergillus terreus ATCC MYA-3633 (strain M). Described as above. Particulars: for MIC-0: strain M, all compounds, spores. It is filed as cell-based. In a few lines: as §2
Data set [14] has as its system C. albicans ATCC 64124 (strain B). It is filed as cell-based, Candida albicans. The method, then:
The efficiency of the compounds to kill C. albicans ATCC 64124 (strain B) was monitored using a previously published protocol. The cell suspensions were prepared to achieve an inoculum of approximately 1-4×10^5 CFU/mL in RPMI 1640 medium at 35° C. […] After fungal cell addition, at 0, 3, 6, 9, 12, and 24 h, the tubes were vortexed and 100 μL aliquots were removed from each solution, spread onto PDA plates, and incubated at 35° C. Colony counts were determined after 24 h of incubation. The experiments were performed in duplicate (FIG. 2).
Time-kill assays with ebsulfur (2a) and analogue 3a (FIG. 2) were performed to determine the rate of fungicidal activity of the compounds if the invention.

The test system of data set [15] is C. albicans ATCC 10231 (strain A). Kind of data set: ROS production assay (DCFH-DA). It is filed as cell-based, Candida albicans. Conditions: 1× and 2× MIC (H2O2 1 mM), 1-h treatment. The method, then:
ROS production assay was performed as previously described with minor modifications. […] Once entering the cells, the DCFH-DA probe is first hydrolyzed to the non-fluorescent 2′,7′-dichlorodihydrofluorescein (DCFH) by cellular esterases. […] A colony of C. albicans ATCC 10231 (strain A) was used to inoculate 5 mL of PDB in a Falcon tube and grown overnight at 35° C. at 200 rpm.
Thus, whether the compounds of the invention would also induce ROS against C. albicans was studied. […] 2′,7′-dichlorodihydrofluorescin diacetate (DCFH-DA) was then used to detect and visualize ROS production (FIG. 5). As a positive control, cells were treated with H2O2, which is an inducer of hydroxyl radical formation.

Data set [16] has as its system Aspergillus strains (K-M). The data set is described as follows: Antifungal MIC, summary over Aspergillus strains. It is filed as cell-based. Particulars: spores. As for the experimental part: Fungal MIC determination experiments were performed using untreated 96-well plates (Corning). Cells were counted either by using a hemocytometer (Hausser Scientific, Horsham, Pa., USA) or by measuring optical density at attenuance of 600 nm (OD600) by using a Genesys 20 spectrophotometer (Thermo Scientific, Waltham, Mass., USA). Spectrophotometric and colorimetric measurements in 96-well plates were performed using a SpectraMax M5 spectrometer (Molecular Devices, Sunnyvale, Calif., USA).
Yeast strains Candida albicans ATCC 10231 (strain A), C. albicans ATCC 64124 (strain B), and C. albicans ATCC MYA-2876(S) (strain C) were kindly provided by Dr. Jon Y. Takemoto (Utah State University, Logan, UT, USA). C. albicans ATCC MYA-90819(R) (strain D), C. albicans ATCC MYA-2310(S) (strain E), C. albicans ATCC 1237(R) (strain F), C. albicans ATCC MYA-1003(R) (strain G), Candida glabrata ATCC 2001 (strain H), Candida krusei ATCC 6258 (strain I), and Candida parapsilosis ATCC 22019 (strain J) were obtained from the American Type Culture Collection (ATCC, Manassas, Va., USA). […]
The MIC values against fungal strains were determined based on a previously published protocol. MIC values for ebsulfur (2a) analogues against fungal cells were evaluated in 96-well plates as described in the CLSI document M27-A3 with minor modifications. […]

Data set [17] can be described thus: Solubility in the RPMI 1640 medium used for MIC determination. Conditions: medium of MIC determination.
The mark [18] stands for this setting: Candida albicans, read-out: MIC-2.

In brackets after ≈: the same amount, converted by molar mass. Like-named read-outs stand apart in the source and are kept apart here.

Consider `O=c1c2ccccc2[se]n1-c1ccccc1` [Compound 1, ebselen, reference compound], for which the MIC-0 is 12.5 µg/mL (≈ 45.6 µM) in data set [1]; 1.56 µg/mL (≈ 5.69 µM) in [2]; 12.5 µg/mL (≈ 45.6 µM) in [3]; greater than 12.5 µg/mL in data set [4]; 3.13 µg/mL (≈ 11.4 µM) in data set [5]; 12.5 µg/mL (≈ 45.6 µM) in data set [6]. For the same molecule, the MIC-0 was determined as 12.5 µg/mL (≈ 45.6 µM) in data set [7]; 1.56 µg/mL (≈ 5.69 µM) in data set [8]; 1.56 µg/mL (≈ 5.69 µM) in [9]; 6.25 µg/mL (≈ 22.8 µM) in [10]; 6.25 µg/mL (≈ 22.8 µM) in data set [11]; 1.56 µg/mL (≈ 5.69 µM) in data set [12]. This molecule showed an MIC-0 in data set [13] of 1.56 µg/mL (≈ 5.69 µM). For the same molecule, the “fungicidal or fungistatic effect” value in [14] (1× MIC) is given as “potent fungicidal activity”. In addition, the “time of complete fungal cell death” value in data set [14] (1× MIC) was determined as 6 h. In [14] (2× MIC), the “time from which completely fungicidal” value is given as 3 h. Moreover, in data set [15], the “ROS induction (DCFH-DA fluorescence)” value is on record as “highly fluorescent”.

In the case of `C[C@@H](c1ncncc1F)[C@](O)(Cn1cncn1)c1ccc(F)cc1F` [VOR, voriconazole, reference compound], the MIC in data set [1] (Candida albicans, ATCC64124, read-out: MIC-2) was greater than 31.2 µg/mL; in data set [2] (Candida albicans, ATCC90819, read-out: MIC-2), 1.95 µg/mL (≈ 5.58 µM); in data set [3] (setting [18]), 7.8 µg/mL (≈ 22.3 µM); in data set [4] (setting [18]), 0.975 µg/mL (≈ 2.79 µM); in [5] (setting [18]) it was 1.95 µg/mL (≈ 5.58 µM); in [6] (setting [18]), 0.975 µg/mL (≈ 2.79 µM). For the same molecule, the MIC in data set [7] (Candida albicans, ATCC10231, read-out: MIC-2) is 7.8 µg/mL (≈ 22.3 µM); in data set [8] (Nakaseomyces glabratus, ATCC2001, read-out: MIC-2) it was 0.06 µg/mL (≈ 0.172 µM); in [9] (Pichia kudriavzevii, ATCC6258, read-out: MIC-2), 0.12 µg/mL (≈ 0.344 µM); in data set [10] (Lodderomyces parapsilosis, ATCC22019, read-out: MIC-2), less than 0.03 µg/mL; in data set [12] (Aspergillus nidulans, ATCC38163, read-out: MIC-0), 0.03 µg/mL (≈ 0.0859 µM); in data set [13] (Aspergillus terreus, read-out: MIC-0) it was 0.12 µg/mL (≈ 0.344 µM). In addition, the “MIC against Aspergillus strains K-M, range” value in data set [16] lay in the range of 0.03 to 0.24 µg/mL.

Turning to `O=c1c2ccccc2sn1C12CC3CC(CC(C3)C1)C2` [Compound 3o], the “solubility in the RPMI 1640 medium” value in [17] was “not soluble”.

On to `O=c1c2ccccc2sn1C1CCCCCCC1` [Compound 3n], for which the MIC-0 was determined as 3.13 µg/mL (≈ 12 µM) in data set [1]; 6.25 µg/mL (≈ 23.9 µM) in data set [2]; 6.25 µg/mL (≈ 23.9 µM) in data set [3]; 6.25 µg/mL (≈ 23.9 µM) in data set [4]; 6.25 µg/mL (≈ 23.9 µM) in [5]; 6.25 µg/mL (≈ 23.9 µM) in [6]. Further, the MIC-0 in data set [7] is 3.13 µg/mL (≈ 12 µM); in data set [8] it was 3.13 µg/mL (≈ 12 µM); in data set [9], 0.39 µg/mL (≈ 1.49 µM); in data set [10] it was 3.13 µg/mL (≈ 12 µM); in data set [11], no more than 0.02 µg/mL; in data set [12], 0.05 µg/mL (≈ 0.191 µM). In data set [13], this molecule returned an MIC-0 of no more than 0.02 µg/mL. For the same molecule, the “MIC against Aspergillus strains K-M, range” value in [16] was no more than 0.02 to 0.05 µg/mL.

As for `O=c1c2ccccc2sn1-c1ccccc1` [Compound 2a, ebsulfur], the MIC-0 in [2] is 3.13 µg/mL (≈ 13.8 µM); in data set [3] it was greater than 12.5 µg/mL; in [4], greater than 12.5 µg/mL; in data set [5], 6.25 µg/mL (≈ 27.5 µM); in [6] it was 12.5 µg/mL (≈ 55 µM); in data set [7], 12.5 µg/mL (≈ 55 µM). Also, the MIC-0 in data set [8] turned out to be 6.25 µg/mL (≈ 27.5 µM); in data set [9], 3.13 µg/mL (≈ 13.8 µM); in data set [10], 12.5 µg/mL (≈ 55 µM); in [11], 6.25 µg/mL (≈ 27.5 µM); in [12] it was 6.25 µg/mL (≈ 27.5 µM); in data set [13], 6.25 µg/mL (≈ 27.5 µM). Moreover, the “fungicidal or fungistatic effect” value in data set [14] (1× MIC) is reported as “fungistatic”; in data set [14] (2× MIC), “fungicidal”. Besides, the “ROS induction (DCFH-DA fluorescence)” value in data set [15] was “highly fluorescent”.

Regarding `OO` [Compound H2O2, H2O2, reference compound], the “ROS induction (DCFH-DA fluorescence)” value in [15] was “highly fluorescent”.

Consider `O=c1c2ccccc2sn1-c1ccc2ccccc2n1` [Compound 2o], for which the “solubility in the RPMI 1640 medium” value in [17] is “solubility issues”.
